Results taken from ChEMBL document CHEMBL3774368, “1,2,4-Triazolyl octahydropyrrolo[2,3-b]pyrroles: A new series of potent and selective dopamine D3 receptor antagonists” (Bioorg Med Chem, 2016).
≈ marks a conversion by molar mass, not a printed value. Calls of active or inactive are those of the source. The calls are words filed in the database; no cut-off is given here.

Assays:
D(2) dopamine receptor [1] = biological target: T1, D(2) dopamine receptor (Homo sapiens, UniProt P14416); assay: Displacement of [3H]-spiperone from human dopamine D2 receptor expressed in CHO-K1 cell membranes after 120 mins by liquid scintillation counter method
[2] = biological target: Voltage-gated inwardly rectifying potassium channel KCNH2 (Homo sapiens, UniProt Q12809); assay: Inhibition of human ERG tail current expressed in HEK293 cells after 5 mins by patch clamp assay
D(2) dopamine receptor [3] = biological target: T1, D(2) dopamine receptor; assay: Antagonist activity at human dopamine D2L receptor expressed in CHO cells assessed as inhibition of dopamine-mediated Ca+2 stimulation pretreated for 10 mins followed by addition of dopamine by fluo-4 AM dye-based FLIPR assay; format: cell-based
[4] = biological target: T2, Muscarinic acetylcholine receptor M1 (Homo sapiens, UniProt P11229); assay: Antagonist activity at recombinant human muscarinic M1 receptor expressed in CHO-K1 cells assessed as inhibition of acetylcholine induced calcium mobilization preincubated for 10 mins followed by acetylcholine addition measured after 1 hr by fluo-4 AM dye-based FLIPR assay; format: functional, cell-based
T2 sequence (P11229 whole entry): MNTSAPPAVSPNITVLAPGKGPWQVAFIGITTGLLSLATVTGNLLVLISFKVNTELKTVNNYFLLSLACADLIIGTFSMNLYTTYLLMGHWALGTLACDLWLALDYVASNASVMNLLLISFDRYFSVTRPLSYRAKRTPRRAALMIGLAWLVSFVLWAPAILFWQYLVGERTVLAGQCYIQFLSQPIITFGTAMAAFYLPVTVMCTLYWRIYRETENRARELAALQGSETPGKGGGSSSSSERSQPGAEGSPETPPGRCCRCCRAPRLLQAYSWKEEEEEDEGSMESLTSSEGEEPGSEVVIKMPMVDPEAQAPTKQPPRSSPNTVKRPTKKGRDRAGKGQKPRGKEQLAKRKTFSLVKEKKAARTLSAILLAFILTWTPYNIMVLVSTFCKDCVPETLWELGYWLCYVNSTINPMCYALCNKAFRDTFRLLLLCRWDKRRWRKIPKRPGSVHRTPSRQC

[5] = biological target: Muscarinic acetylcholine receptor M3 (Homo sapiens, UniProt P20309); assay: Antagonist activity at recombinant human muscarinic M3 receptor expressed in CHO-K1 cells assessed as inhibition of acetylcholine induced calcium mobilization preincubated for 10 mins followed by acetylcholine addition measured after 1 hr by fluo-4 AM dye-based FLIPR assay; format: functional, cell-based
Cytochrome P450 1A2 = biological target: T3, Cytochrome P450 1A2 (Homo sapiens, UniProt P05177); assay: Inhibition of recombinant human CYP1A2 expressed in baculosomes preincubated for 10 mins followed by cofactor addition measured every minute for 10 mins using ethoxyresorufin as substrate by CYPEX assay
T3 sequence (P05177 whole entry): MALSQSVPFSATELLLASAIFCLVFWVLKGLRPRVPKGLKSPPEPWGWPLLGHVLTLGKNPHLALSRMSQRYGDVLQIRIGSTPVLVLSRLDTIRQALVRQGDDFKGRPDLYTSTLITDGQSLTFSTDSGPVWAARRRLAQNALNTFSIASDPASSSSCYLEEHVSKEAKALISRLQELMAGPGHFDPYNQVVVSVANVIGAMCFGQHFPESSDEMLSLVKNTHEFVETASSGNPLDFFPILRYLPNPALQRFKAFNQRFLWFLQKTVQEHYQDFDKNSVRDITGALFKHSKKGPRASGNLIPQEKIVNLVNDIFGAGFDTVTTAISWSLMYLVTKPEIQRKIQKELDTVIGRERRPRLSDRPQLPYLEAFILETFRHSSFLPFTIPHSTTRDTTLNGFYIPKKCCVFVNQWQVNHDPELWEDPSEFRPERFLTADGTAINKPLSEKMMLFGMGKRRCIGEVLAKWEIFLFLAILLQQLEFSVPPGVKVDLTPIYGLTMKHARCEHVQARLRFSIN

Cytochrome P450 2C9 = Cytochrome P450 2C9 (Homo sapiens, UniProt P11712); assay: Inhibition of recombinant human CYP2C9 expressed in baculosomes preincubated for 10 mins followed by cofactor addition measured every minute for 10 mins using 7-methoxy-4-trifluoromethylcoumarin-3-acetic acid as substrate by CYPEX assay
Cytochrome P450 2C19 = Cytochrome P450 2C19 (Homo sapiens, UniProt P33261); assay: Inhibition of recombinant human CYP2C19 expressed in baculosomes preincubated for 10 mins followed by cofactor addition measured every minute for 10 mins using 3-butyryl-7-methoxycoumarin as substrate by CYPEX assay
Cytochrome P450 2D6 = Cytochrome P450 2D6 (Homo sapiens, UniProt P10635); assay: Inhibition of recombinant human CYP2D6 expressed in baculosomes preincubated for 10 mins followed by cofactor addition measured every minute for 10 mins using 4-methylaminomethyl-7-methoxycoumarin as substrate by CYPEX assay
Cytochrome P450 3A4 [6] = biological target: T4, Cytochrome P450 3A4 (Homo sapiens, UniProt P08684); assay: Inhibition of recombinant human CYP3A4 expressed in baculosomes preincubated for 10 mins followed by cofactor addition measured every minute for 10 mins using diethoxyflourescein as substrate by CYPEX assay
Cytochrome P450 3A4 [7] = biological target: T4, Cytochrome P450 3A4; assay: Inhibition of recombinant human CYP3A4 expressed in baculosomes preincubated for 10 mins followed by cofactor addition measured every minute for 10 mins using 7-benzyloxyquinoline as substrate by CYPEX assay
[8] = Fraction absorbed in portal vein cannulated Sprague-Dawley rat model; conditions: in vivo
[9] = Volume of distribution at steady state in portal vein cannulated Sprague-Dawley rat model; conditions: in vivo
[10] = Clearance in portal vein cannulated Sprague-Dawley rat blood; conditions: whole blood
[11] = Half life in portal vein cannulated Sprague-Dawley rat model; conditions: in vivo
in vitro [12] = conditions: rat, liver microsomes, CLH
in vitro [13] = conditions: human, liver microsomes, CLH
D(3) dopamine receptor [14] = biological target: T5, D(3) dopamine receptor (Homo sapiens, UniProt P35462); assay: Displacement of [3H]-spiperone from human dopamine D3 receptor expressed in CHO-K1 cell membranes after 90 mins by liquid scintillation counter method
D(3) dopamine receptor [15] = biological target: T5, D(3) dopamine receptor; assay: Antagonist activity at human dopamine D3 receptor expressed in CHO-K1 cell membranes after 90 mins by [35S]GTP-gamma-S binding assay in presence of 3 nM quinelorane
[16] = Apparent permeability across apical to basolateral side in human Caco2 cells; format: ADME, cell-based; conditions: Caco-2
[17] = Efflux ratio of apparent permeability across basolateral to apical side in human Caco2 cells; format: ADME, cell-based; conditions: Caco-2
[18] = Fraction unbound in Sprague-Dawley rat blood
[19] = Fraction unbound in Sprague-Dawley rat brain
in vivo [20] = conditions: Sprague-Dawley, rat
Description: Hepatic extraction ratio in portal vein cannulated Sprague-Dawley rat model

in vivo [21] = conditions: Sprague-Dawley, rat, po
Description: Oral bioavailability in portal vein cannulated Sprague-Dawley rat model

[22] = Solubility of compound; format: physicochemical
[23] = Permeability across apical to basolateral side in human Caco2 cells; conditions: for Papp A→B: Caco-2, permeability
D(4) dopamine receptor = biological target: T6, D(4) dopamine receptor (Homo sapiens, UniProt P21917); assay: (§1) Binding affinity to dopamine D4 receptor (unknown origin)
T6 sequence (P21917 whole entry): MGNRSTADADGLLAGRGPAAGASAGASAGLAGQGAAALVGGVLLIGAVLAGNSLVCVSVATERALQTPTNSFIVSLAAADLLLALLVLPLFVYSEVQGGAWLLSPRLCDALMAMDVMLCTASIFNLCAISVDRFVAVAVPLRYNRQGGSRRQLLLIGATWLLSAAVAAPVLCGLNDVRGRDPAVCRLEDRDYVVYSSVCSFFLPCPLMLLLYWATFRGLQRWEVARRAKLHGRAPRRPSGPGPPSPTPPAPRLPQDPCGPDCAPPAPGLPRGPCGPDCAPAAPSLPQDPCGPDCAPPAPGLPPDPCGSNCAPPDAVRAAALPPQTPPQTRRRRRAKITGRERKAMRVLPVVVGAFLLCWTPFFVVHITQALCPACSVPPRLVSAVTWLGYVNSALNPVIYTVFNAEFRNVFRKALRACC

in vitro [24] = conditions: human, Caco-2
Description: Efflux ratio of permeability across basolateral to apical side in human Caco2 cells

Liver microsome [25] = conditions: rat, microsomes, 0.5 µM
Liver microsome [26] = conditions: human, microsomes, 0.5 µM
[27] = biological target: D(1A) dopamine receptor (Homo sapiens) (UniProt P21728); assay: Binding affinity to dopamine D1 receptor (unknown origin)
[28] = biological target: T7, D(4) dopamine receptor (Homo sapiens) (UniProt P21917); assay: as §1
T7 sequence (whole entry): T6 sequence (P21917 whole entry)

Chain of Muscarinic acetylcholine receptor M3 (P20309 whole entry): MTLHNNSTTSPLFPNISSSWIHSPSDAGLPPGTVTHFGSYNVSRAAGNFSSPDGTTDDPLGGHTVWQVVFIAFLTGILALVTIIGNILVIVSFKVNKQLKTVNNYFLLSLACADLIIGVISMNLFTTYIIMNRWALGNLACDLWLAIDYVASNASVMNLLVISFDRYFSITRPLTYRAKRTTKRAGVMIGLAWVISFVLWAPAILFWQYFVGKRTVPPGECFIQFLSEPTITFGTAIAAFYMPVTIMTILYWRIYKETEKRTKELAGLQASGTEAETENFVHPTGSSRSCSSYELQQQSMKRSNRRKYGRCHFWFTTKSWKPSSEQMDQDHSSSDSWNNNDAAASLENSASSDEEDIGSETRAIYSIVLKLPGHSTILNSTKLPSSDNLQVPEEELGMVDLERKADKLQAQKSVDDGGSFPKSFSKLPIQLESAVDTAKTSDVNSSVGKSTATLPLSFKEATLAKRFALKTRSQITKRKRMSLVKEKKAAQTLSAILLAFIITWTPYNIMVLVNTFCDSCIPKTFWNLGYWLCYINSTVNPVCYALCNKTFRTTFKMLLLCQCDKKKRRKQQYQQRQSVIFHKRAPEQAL
T4 sequence (P08684 whole entry): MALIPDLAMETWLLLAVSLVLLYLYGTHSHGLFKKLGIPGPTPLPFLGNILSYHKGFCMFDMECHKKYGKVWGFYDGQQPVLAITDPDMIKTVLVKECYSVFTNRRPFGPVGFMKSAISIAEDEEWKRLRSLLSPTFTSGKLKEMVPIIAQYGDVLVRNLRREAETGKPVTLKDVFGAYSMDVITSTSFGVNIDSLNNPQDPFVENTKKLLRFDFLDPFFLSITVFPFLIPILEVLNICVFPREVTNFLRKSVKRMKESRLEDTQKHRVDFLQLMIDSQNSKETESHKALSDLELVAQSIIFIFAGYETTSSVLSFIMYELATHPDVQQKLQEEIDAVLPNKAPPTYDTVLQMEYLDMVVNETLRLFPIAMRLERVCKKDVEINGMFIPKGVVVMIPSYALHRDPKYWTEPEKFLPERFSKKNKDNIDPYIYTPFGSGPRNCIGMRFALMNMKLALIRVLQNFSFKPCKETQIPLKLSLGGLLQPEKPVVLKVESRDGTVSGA
Chain of Cytochrome P450 2C9 (P11712 whole entry): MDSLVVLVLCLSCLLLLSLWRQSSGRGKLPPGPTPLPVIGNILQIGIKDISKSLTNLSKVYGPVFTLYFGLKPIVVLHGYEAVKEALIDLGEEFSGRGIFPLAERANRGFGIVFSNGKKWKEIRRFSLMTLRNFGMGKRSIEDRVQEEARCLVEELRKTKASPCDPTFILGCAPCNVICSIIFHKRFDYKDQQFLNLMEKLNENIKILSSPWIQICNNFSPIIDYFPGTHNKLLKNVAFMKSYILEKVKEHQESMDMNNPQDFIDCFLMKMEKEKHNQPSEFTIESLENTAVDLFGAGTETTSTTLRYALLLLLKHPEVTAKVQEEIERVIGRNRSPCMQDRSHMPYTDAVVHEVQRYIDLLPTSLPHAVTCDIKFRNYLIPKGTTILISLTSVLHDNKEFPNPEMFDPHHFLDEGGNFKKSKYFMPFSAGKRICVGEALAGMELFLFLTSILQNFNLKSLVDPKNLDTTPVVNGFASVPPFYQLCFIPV
Chain of Cytochrome P450 2C19 (P33261 whole entry): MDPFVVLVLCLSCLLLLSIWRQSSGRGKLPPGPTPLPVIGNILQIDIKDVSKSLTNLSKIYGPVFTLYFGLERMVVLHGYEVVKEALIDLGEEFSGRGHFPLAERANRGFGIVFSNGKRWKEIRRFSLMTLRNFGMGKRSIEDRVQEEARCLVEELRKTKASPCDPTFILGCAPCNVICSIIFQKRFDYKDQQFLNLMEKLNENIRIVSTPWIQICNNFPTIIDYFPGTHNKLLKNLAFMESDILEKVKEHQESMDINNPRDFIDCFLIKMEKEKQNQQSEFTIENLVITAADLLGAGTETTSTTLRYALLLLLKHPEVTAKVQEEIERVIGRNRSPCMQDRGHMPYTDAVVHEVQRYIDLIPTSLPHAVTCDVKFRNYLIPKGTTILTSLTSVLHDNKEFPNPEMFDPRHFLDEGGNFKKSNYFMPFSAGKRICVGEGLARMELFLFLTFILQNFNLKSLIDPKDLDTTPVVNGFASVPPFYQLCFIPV
Chain of Voltage-gated inwardly rectifying potassium channel KCNH2 (Q12809 whole entry): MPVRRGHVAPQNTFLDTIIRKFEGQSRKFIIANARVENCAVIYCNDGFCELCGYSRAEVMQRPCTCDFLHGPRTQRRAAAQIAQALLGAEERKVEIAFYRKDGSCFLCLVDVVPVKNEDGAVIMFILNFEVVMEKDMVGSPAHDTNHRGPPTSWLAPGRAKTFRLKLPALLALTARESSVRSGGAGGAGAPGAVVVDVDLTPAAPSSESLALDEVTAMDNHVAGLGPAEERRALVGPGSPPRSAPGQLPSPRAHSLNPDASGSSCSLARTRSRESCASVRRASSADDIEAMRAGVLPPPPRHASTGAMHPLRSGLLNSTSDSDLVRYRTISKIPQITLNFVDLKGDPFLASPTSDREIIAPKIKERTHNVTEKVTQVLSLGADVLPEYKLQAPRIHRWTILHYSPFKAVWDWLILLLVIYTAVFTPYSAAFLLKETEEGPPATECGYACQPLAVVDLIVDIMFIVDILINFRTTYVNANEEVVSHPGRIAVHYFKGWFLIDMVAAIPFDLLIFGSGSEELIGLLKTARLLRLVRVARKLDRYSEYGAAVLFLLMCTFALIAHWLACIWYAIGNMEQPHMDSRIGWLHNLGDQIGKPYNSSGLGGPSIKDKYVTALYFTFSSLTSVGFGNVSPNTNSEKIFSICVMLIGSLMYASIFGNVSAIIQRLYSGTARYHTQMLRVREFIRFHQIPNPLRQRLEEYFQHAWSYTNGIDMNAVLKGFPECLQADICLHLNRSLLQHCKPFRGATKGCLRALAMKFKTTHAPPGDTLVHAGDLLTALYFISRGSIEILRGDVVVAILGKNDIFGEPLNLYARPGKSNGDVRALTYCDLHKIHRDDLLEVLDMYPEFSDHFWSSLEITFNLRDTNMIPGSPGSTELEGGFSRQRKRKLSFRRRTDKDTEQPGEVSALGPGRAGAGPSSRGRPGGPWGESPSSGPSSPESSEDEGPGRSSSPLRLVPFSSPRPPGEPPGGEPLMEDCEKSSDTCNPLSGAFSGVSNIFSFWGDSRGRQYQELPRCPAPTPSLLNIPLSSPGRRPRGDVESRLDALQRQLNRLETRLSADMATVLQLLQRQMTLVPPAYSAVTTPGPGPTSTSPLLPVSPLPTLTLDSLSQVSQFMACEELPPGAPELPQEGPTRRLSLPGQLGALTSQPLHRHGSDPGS
T1 sequence (P14416 whole entry): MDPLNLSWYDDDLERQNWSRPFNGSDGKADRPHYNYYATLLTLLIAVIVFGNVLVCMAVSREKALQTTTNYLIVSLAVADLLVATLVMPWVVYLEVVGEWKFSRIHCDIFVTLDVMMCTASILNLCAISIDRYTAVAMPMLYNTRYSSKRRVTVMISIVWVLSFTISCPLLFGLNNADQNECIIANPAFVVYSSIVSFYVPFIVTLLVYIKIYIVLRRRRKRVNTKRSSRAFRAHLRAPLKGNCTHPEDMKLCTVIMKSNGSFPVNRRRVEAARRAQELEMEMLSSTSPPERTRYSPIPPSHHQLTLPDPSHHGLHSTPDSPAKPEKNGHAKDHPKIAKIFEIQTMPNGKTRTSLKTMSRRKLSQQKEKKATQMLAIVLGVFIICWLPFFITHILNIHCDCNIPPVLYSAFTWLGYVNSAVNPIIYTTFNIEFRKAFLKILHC
T5 sequence (P35462 whole entry): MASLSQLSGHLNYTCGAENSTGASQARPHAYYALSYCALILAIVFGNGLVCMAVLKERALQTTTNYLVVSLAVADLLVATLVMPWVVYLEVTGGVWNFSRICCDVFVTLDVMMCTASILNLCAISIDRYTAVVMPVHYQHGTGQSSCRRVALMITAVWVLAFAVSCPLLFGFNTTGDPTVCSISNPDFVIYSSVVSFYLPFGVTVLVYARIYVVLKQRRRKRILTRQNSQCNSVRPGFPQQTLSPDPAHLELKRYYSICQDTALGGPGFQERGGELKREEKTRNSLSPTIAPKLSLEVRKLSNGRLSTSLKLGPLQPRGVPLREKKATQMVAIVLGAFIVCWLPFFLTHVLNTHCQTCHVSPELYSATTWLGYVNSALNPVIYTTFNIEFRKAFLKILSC
Chain of Cytochrome P450 2D6 (P10635 whole entry): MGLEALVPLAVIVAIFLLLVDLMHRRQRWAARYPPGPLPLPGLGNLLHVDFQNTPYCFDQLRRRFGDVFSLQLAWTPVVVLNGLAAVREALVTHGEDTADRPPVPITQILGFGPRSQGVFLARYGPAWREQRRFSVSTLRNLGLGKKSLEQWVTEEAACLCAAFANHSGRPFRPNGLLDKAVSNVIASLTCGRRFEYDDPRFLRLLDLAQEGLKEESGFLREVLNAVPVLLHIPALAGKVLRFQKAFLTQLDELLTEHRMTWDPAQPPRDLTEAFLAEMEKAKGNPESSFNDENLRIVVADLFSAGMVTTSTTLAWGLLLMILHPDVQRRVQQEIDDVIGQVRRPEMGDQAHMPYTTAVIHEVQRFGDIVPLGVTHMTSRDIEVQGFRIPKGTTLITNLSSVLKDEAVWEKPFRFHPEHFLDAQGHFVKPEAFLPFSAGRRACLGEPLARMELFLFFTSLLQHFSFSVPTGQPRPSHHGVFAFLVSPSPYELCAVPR
Chain of D(1A) dopamine receptor (Homo sapiens) (P21728 whole entry): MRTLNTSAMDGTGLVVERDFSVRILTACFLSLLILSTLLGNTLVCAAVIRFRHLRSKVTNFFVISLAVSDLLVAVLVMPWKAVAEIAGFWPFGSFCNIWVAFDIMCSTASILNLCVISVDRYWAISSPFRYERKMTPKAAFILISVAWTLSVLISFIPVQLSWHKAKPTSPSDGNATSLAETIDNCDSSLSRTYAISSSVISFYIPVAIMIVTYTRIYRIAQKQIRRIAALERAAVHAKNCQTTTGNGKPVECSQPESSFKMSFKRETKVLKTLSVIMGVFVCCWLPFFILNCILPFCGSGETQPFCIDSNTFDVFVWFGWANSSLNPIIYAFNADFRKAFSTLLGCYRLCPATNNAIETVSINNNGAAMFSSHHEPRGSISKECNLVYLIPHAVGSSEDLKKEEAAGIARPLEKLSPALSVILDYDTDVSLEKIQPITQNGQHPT

SMILES	Ki (D(2) dopamine receptor [1])	IC50 [2]	Ki [4]	Ki [5]	IC50 (Cytochrome P450 1A2)	IC50 (Cytochrome P450 2C9)	IC50 (Cytochrome P450 2C19)	IC50 (Cytochrome P450 2D6)	IC50 (Cytochrome P450 3A4 [6])	IC50 (Cytochrome P450 3A4 [7])	Fa [8]	Vd [9]	clearance [10]	half-life [11]	microsomal CLint at 0.5 µM (in vitro [12])	microsomal CLint at 0.5 µM (in vitro [13])	Ki (D(3) dopamine receptor [14])	fraction unbound [18]	fraction unbound [19]	bioavailability (in vivo [21])	further results
Cc1ncoc1-c1nnc(SCCCN2CC3CCN(c4ccccc4)C3C2)n1C (stereo in doubt; 6b)	0.251 µM	1.26 µM	1 µM	1.26 µM	> 1 µM	> 1 µM	> 1 µM	> 1 µM	> 1 µM	> 1 µM	50%	2.2 L/kg	80.1 mL/min/kg	18 min	364 µL/min/mg	88 µL/min/mg					Ki (D(2) dopamine receptor [3]): 0.158 µM
Cc1ncoc1-c1nnc(SCCCN2CC3CCN(c4ccc(C(F)(F)F)cc4F)C3C2)n1C (stereo in doubt; 8b)	0.0631 µM	0.398 µM	0.11 µM	0.245 µM	> 3 µM	> 3 µM	> 3 µM	> 3 µM	> 3 µM	> 3 µM	79%	1.1 L/kg	20 mL/min/kg	90 min	43 µL/min/mg	177 µL/min/mg	0.00126 µM	0.0025	0.014	73%	Ki (D(2) dopamine receptor [3]): 0.0501 µM; Ki (D(3) dopamine receptor [15]): 0.00158 µM; Papp A→B [16]: 5.5 ×10⁻⁶ cm/s; efflux ratio [17]: 0.55; hepatic extraction ratio (in vivo [20]): 0.07
Cn1c(SCCCN2CC3CCN(c4ccc(C(F)(F)F)cc4)C3C2)nnc1-c1cc[nH]c(=O)c1 (stereo in doubt; 55b)	0.631 µM	2.51 µM	1.74 µM	1.1 µM	> 20 µM	> 20 µM	> 20 µM	> 20 µM	> 20 µM	> 20 µM	5%	4.2 L/kg	37 mL/min/kg	126 min	47 µL/min/mg	33 µL/min/mg	0.00794 µM	0.044	0.022	3%	solubility [22]: 200 µg/mL (≈ 396 µM); Papp A→B [23]: 4.2 ×10⁻⁶ cm/s; Ki (D(4) dopamine receptor): 15.8 µM; hepatic extraction ratio (in vivo [20]): 0.4; efflux ratio (in vitro [24]): 3.8
Cn1c(SCCCN2CC3CCN(c4ccc(C(F)(F)F)cc4)C3C2)nnc1-c1ccc(=O)n(C)c1 (stereo in doubt; 57b) [listing 1 of 2 here]			0.38 µM	0.479 µM													0.00501 µM				Papp A→B [23]: 5.3 ×10⁻⁶ cm/s; CLH (Liver microsome [25]): 30 µL/min; CLH (Liver microsome [26]): 111 µL/min
Cn1c(SCCCN2CC3CCN(c4ccc(C(F)(F)F)cc4)C3C2)nnc1-c1ccc(=O)n(C)c1 (stereo in doubt; 57b) [listing 2 of 2 here]																					Activity [27]: inactive; Activity [28]: inactive
Cn1c(SCCCN2CC3CCN(c4ccccc4)C3C2)nnc1C1CCOCC1 (stereo in doubt; 62a) [listing 1 of 2 here]			1.02 µM	1.45 µM	> 17 µM	> 17 µM	> 17 µM	> 17 µM	> 17 µM	> 17 µM	5.5%	0.44 L/kg	20 mL/min/kg	18 min	272 µL/min/mg	26 µL/min/mg	0.00631 µM	0.31	0.33	< 1%	solubility [22]: > 2000 µg/mL; permeability ([23]; Caco-2): permeable
Cn1c(SCCCN2CC3CCN(c4ccccc4)C3C2)nnc1C1CCOCC1 (stereo in doubt; 62a) [listing 2 of 2 here]																					Activity [27]: inactive; Activity [28]: inactive
